For series [1], the target named is T1, Amylin 3(a) receptor (human calcitonin receptor (CTa) and RAMP-3) (Homo sapiens, UniProt O60896+P30988).
T1 construct: expressed in transfected cells; host or cells: BHK570 cells, stably transfected with a CRE-luciferase reporter
In words: Luciferase assay (III), BHK Amylin 3(a)//CRE-luc cells. Particulars: BHK cells with Amylin 3(a) receptor and CRE luciferase reporter, 4 hours incubation; read-out: Potency Luciferase. Type of series: cell-based. In outline:
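Read-out is CRE-driven luciferase luminescence, taken 30 min after LucLite addition at room temperature. Compounds were incubated 4 h at 37° C in assay medium (10% FBS, 10 mM Hepes, pH 7,4). The cell line is BHK570 co-transfected with human calcitonin receptor CTa and RAMP-3, seeded overnight before use.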

Series [2] in a line: Assay (V) PK - determination of T½ in mini-pig. The class given is in vivo. Particulars: minipig, sc; terminal plasma half-life, subcutaneous, approx 2 nmol/kg, male Göttingen mini-pigs. How it is done: Assay (V) PK—Determination OF T½ in Mini-Pig
T½ is the terminal half-life=ln 2/λz of a compound in plasma. λz is the first order rate constant associated with the terminal (log-linear) portion of the plasma concentration-time curve and is estimated by linear regression of time vs. log concentration.
T½ values of the amylin analogues of the invention is determined by pharmacokinetic studies in male Göttingen mini-pigs from Ellegaard Göttingen Minipigs ApS and the principles of laboratory animal care are followed.
An acclimatization period of approximately 6-10 days was allowed before the animals entered the study. At start of the acclimatization period the mini-pigs were about 5 to 12 months old and in the weight range of 7-35 kg. The mini-pigs had two central venous catheters inserted which were used for blood sampling.
The studies were conducted in an animal room which was illuminated to give a cycle of approx 12 hours light and 12 hours darkness. The animals were housed individually.
The animals had free access to domestic quality drinking water during the study, but were typically fasted from overnight before dosing until approx 6-12 hours after dosing. The animals were weighed on arrival and on the days of dosing.
In the present studies the test substances were administered subcutaneously in approx 2 nmol/kg dose. The animals received a single subcutaneous injection. The subcutaneous injection was given on the right side of the neck, approximately 5-7 cm from the ear and 7-9 cm from the middle of the neck. The injections were given with a stopper on the needle, allowing approx 0.5 cm of the needle to be introduced. Each test substance was given to typically three but in some cases two or four animals.
A full plasma concentration-time profile, employing 12-16 sampling points, was obtained from each animal. In example blood samples were collected according to the following schedule:
After subcutaneous administration:
Predose (0), 0.5, 1, 2, 4, 6, 8, 12, 24, 48, 72, 96, 120, 168 and 240 hours after injection. In some cases also additional blood samples up to 288 hours post injection were taken.
At each sampling time, 0.5 to 2 ml of blood was drawn from each animal. The blood samples were taken via the central venous catheter.
The blood samples were collected into EDTA test tubes (i.e. Sarstedt Micro tube 1.3 mL K3E). Blood samples were kept on ice for max 20 min. before centrifugation. Plasma was separated using centrifugation (i.e. at 4° C., 10 min., 1500 G) and was immediately transferred to Micronic tubes. Approximately 200 μl plasma was transferred to each Micronic tube. The plasma was stored at −20° C. until assayed. The plasma samples were assayed for the content of amylin using an ELISA assay.
The plasma concentration-time profiles were analysed by a non-compartmental pharmacokinetic analysis (NCA) using WinNonlin Professional 5.0 (Pharsight Inc., Mountain View, Calif., USA). NCA was performed using the individual plasma concentration-time profiles from each animal. T½ is the terminal half-life=ln 2/λz and was determined from λz, the first order rate constant associated with the terminal (log-linear) portion of the curve, estimated by linear regression of time vs. log concentration.
ELISA Plasma Assay for Amylin Quantification
The human amylin ELISA is a monoclonal antibody-based sandwich immunoassay for determining amylin levels in human plasma. The capture antibody recognizes human amylin, amylin acid (deamidated amylin), a 1-20 fragment of amylin, but not reduced amylin.
The detection antibody binds to reduced or unreduced human amylin but not amylin acid and is complexed with streptavidin-alkaline phosphatase. The substrate, 4-methylumbelliferyl phosphate, is applied to the completed sandwich and the fluorescent signal, monitored at 355 nm/460 nm, is proportional to the amount of amylin present in the sample.

By half-life is commonly meant the time needed for the level to fall by half in the phase considered. Low values mean fast loss, high ones slow loss.

Molecules are shown by their SMILES. *1 amine or outer side, *2 acyl side, *3 side chain or, on linkers, in order; H or OH if unused. Where a SMILES comes first, the peptide text is derived from it. Bridges are numbered along the chain shown (N, C = ends). The star is where a group is joined. C20 diacid = O=C(O)CCCCCCCCCCCCCCCCCCC(=O)*; γGlu = O=C(O)[C@H](CCC(=O)[*:2])N[*:1]; AEEA = NCCOCCOCC(=O)O

T1 sequence (O60896 24-148): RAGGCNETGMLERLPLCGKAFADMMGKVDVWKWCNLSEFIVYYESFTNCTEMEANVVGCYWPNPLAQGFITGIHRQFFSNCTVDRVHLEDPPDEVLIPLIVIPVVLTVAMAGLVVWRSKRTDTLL
T1 sequence (P30988 25-474): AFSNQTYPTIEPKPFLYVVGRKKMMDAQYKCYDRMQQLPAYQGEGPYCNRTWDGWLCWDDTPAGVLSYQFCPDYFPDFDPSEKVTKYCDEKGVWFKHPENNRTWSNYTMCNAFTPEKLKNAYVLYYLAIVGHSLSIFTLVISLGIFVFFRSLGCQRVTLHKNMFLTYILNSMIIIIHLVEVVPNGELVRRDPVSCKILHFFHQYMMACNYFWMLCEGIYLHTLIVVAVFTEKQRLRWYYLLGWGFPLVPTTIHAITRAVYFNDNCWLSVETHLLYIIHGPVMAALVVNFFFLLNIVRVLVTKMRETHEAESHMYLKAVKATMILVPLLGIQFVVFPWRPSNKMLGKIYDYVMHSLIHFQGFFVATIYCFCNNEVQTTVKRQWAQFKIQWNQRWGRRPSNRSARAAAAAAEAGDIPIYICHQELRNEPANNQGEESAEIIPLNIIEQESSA

As for `CC[C@H](C)[C@H](NC(=O)[C@@H]1CCCN1C(=O)CNC(=O)[C@H](Cc1ccccc1)NC(=O)[C@H](CC(N)=O)NC(=O)[C@H](CC(N)=O)NC(=O)[C@H](CO)NC(=O)[C@H](CO)NC(=O)[C@H](Cc1c[nH]cn1)NC(=O)[C@H](CCCNC(=N)N)NC(=O)[C@H](CC(C)C)NC(=O)[C@H](Cc1ccccc1)NC(=O)[C@H](CC(N)=O)NC(=O)[C@H](C)NC(=O)[C@H](CC(C)C)NC(=O)[C@H](CCCNC(=N)N)NC(=O)[C@H](CCC(N)=O)NC(=O)[C@@H](NC(=O)[C@H](C)NC(=O)[C@@H]1CSSC[C@H](NC(=O)[C@H](CCCCN)NC(=O)[C@H](CCCNC(=N)N)NC(=O)COCCOCCNC(=O)CC[C@H](NC(=O)CCCCCCCCCCCCCCCCCCC(=O)O)C(=O)O)C(=O)N[C@@H](CC(N)=O)C(=O)N[C@@H]([C@@H](C)O)C(=O)N[C@@H](C)C(=O)N[C@@H]([C@@H](C)O)C(=O)N1)[C@@H](C)O)C(=O)N[C@@H](CC(C)C)C(=O)N1CCC[C@H]1C(=O)N1CCC[C@H]1C(=O)N[C@H](C(=O)N[C@@H](CC(N)=O)C(=O)N[C@H](C(=O)NCC(=O)N[C@@H](CO)C(=O)N[C@@H](CC(N)=O)C(=O)N[C@H](C(=O)N[C@@H](Cc1ccc(O)cc1)C(N)=O)[C@@H](C)O)C(C)C)[C@@H](C)O` [Example 23, N-alpha-[2-(2-{2-[4-(S)-Carboxy-4-(19-carboxynonadecanoylamino)butyrylamino]ethoxy}ethoxy)acetyl]-Arg-[Arg17]-pramlintide] ({C20 diacid-γGlu-AEEA}-RKCNTATCATQRLANFLRHSSNNFGPILPPTNVGSNTY-NH2; disulfide 3-8), the EC50 in series [1] came out at 0.1 nM. This compound also showed a half-life in series [2] of 53 h.

As to `CC[C@H](C)[C@H](NC(=O)[C@@H]1CCCN1C(=O)CNC(=O)[C@H](Cc1ccccc1)NC(=O)[C@H](CC(N)=O)NC(=O)[C@H](CC(N)=O)NC(=O)[C@H](CO)NC(=O)[C@H](CO)NC(=O)[C@H](Cc1c[nH]cn1)NC(=O)[C@H](Cc1c[nH]cn1)NC(=O)[C@H](CC(C)C)NC(=O)[C@H](Cc1ccccc1)NC(=O)[C@H](CC(N)=O)NC(=O)[C@H](C)NC(=O)[C@H](CC(C)C)NC(=O)[C@H](CCCNC(=N)N)NC(=O)[C@H](CCC(N)=O)NC(=O)[C@@H](NC(=O)[C@H](C)NC(=O)[C@@H]1CSSC[C@H](NC(=O)[C@H](Cc2c[nH]cn2)NC(=O)CC[C@H](NC(=O)CCCCCCCCCCCCCCCCCCC(=O)O)C(=O)O)C(=O)N[C@@H](CC(N)=O)C(=O)N[C@@H]([C@@H](C)O)C(=O)N[C@@H](C)C(=O)N[C@@H]([C@@H](C)O)C(=O)N1)[C@@H](C)O)C(=O)N[C@@H](CC(C)C)C(=O)N1CCC[C@H]1C(=O)N1CCC[C@H]1C(=O)N[C@H](C(=O)N[C@@H](CC(N)=O)C(=O)N[C@H](C(=O)NCC(=O)N[C@@H](CO)C(=O)N[C@@H](CC(N)=O)C(=O)N[C@H](C(=O)N[C@@H](Cc1ccc(O)cc1)C(N)=O)[C@@H](C)O)C(C)C)[C@@H](C)O` [Example 29, N-alpha-[(S)-4-Carboxy-4-(19-carboxynonadecanoylamino)butyryl]-[His1,His17]-pramlintide] ({C20 diacid-γGlu}-HCNTATCATQRLANFLHHSSNNFGPILPPTNVGSNTY-NH2; disulfide 2-7), the EC50 in series [1] was determined as 0.07 nM. Besides, the half-life in series [2] was 110 h.

Consider `CC[C@H](C)[C@H](NC(=O)[C@@H]1CCCN1C(=O)CNC(=O)[C@H](Cc1ccccc1)NC(=O)[C@H](CC(N)=O)NC(=O)[C@H](CC(N)=O)NC(=O)[C@H](CO)NC(=O)[C@H](CO)NC(=O)[C@H](Cc1c[nH]cn1)NC(=O)[C@H](Cc1c[nH]cn1)NC(=O)[C@H](CC(C)C)NC(=O)[C@H](Cc1ccccc1)NC(=O)[C@H](CC(N)=O)NC(=O)[C@H](C)NC(=O)[C@H](CC(C)C)NC(=O)[C@H](CCCNC(=N)N)NC(=O)[C@H](CCC(N)=O)NC(=O)[C@@H](NC(=O)[C@H](C)NC(=O)[C@@H]1CSSC[C@H](NC(=O)[C@H](Cc2c[nH]cn2)NC(=O)COCCOCCNC(=O)CC[C@H](NC(=O)CCCCCCCCCCCCCCCCCCC(=O)O)C(=O)O)C(=O)N[C@@H](CC(N)=O)C(=O)N[C@@H]([C@@H](C)O)C(=O)N[C@@H](C)C(=O)N[C@@H]([C@@H](C)O)C(=O)N1)[C@@H](C)O)C(=O)N[C@@H](CC(C)C)C(=O)N1CCC[C@H]1C(=O)N1CCC[C@H]1C(=O)N[C@H](C(=O)N[C@@H](CC(N)=O)C(=O)N[C@H](C(=O)NCC(=O)N[C@@H](CO)C(=O)N[C@@H](CC(N)=O)C(=O)N[C@H](C(=O)N[C@@H](Cc1ccc(O)cc1)C(N)=O)[C@@H](C)O)C(C)C)[C@@H](C)O` [Example 37, N-alpha-[2-(2-{2-[4-(S)-Carboxy-4-(19-carboxynonadecanoylamino)butyrylamino]ethoxy}ethoxy)acetyl]-[His1,His17]-pramlintide] ({C20 diacid-γGlu-AEEA}-HCNTATCATQRLANFLHHSSNNFGPILPPTNVGSNTY-NH2; disulfide 2-7), for which the EC50 in series [1] amounted to 0.09 nM. In addition, in series [2], the half-life was 66 h.

For `CC[C@H](C)[C@H](NC(=O)[C@@H]1CCCN1C(=O)CNC(=O)[C@H](Cc1ccccc1)NC(=O)[C@H](CC(N)=O)NC(=O)[C@H](CC(N)=O)NC(=O)[C@H](CO)NC(=O)[C@H](CO)NC(=O)[C@H](Cc1c[nH]cn1)NC(=O)[C@H](Cc1c[nH]cn1)NC(=O)[C@H](CC(C)C)NC(=O)[C@H](Cc1ccccc1)NC(=O)[C@H](CC(N)=O)NC(=O)[C@H](C)NC(=O)[C@H](CC(C)C)NC(=O)[C@H](CCCNC(=N)N)NC(=O)[C@H](CCC(N)=O)NC(=O)[C@@H](NC(=O)[C@H](C)NC(=O)[C@@H]1CSSC[C@H](NC(=O)[C@H](CCCCN)NC(=O)[C@H](CCCNC(=N)N)NC(=O)[C@H](Cc2c[nH]cn2)NC(=O)CC[C@H](NC(=O)CCCCCCCCCCCCCCCCCCC(=O)O)C(=O)O)C(=O)N[C@@H](CC(N)=O)C(=O)N[C@@H]([C@@H](C)O)C(=O)N[C@@H](C)C(=O)N[C@@H]([C@@H](C)O)C(=O)N1)[C@@H](C)O)C(=O)N[C@@H](CC(C)C)C(=O)N1CCC[C@H]1C(=O)N1CCC[C@H]1C(=O)N[C@H](C(=O)N[C@@H](CC(N)=O)C(=O)N[C@H](C(=O)NCC(=O)N[C@@H](CO)C(=O)N[C@@H](CC(N)=O)C(=O)N[C@H](C(=O)N[C@@H](Cc1ccc(O)cc1)C(N)=O)[C@@H](C)O)C(C)C)[C@@H](C)O` [Example 40, N-alpha-[(S)-4-Carboxy-4-(19-carboxynonadecanoylamino)butyryl]-His-Arg-[His17]-pramlintide] ({C20 diacid-γGlu}-HRKCNTATCATQRLANFLHHSSNNFGPILPPTNVGSNTY-NH2; disulfide 4-9), the EC50 in series [1] was found to be 0.1 nM. In series [2], this compound had a half-life of 31 h.
